Assay results reported in patent publication US11992490B2, “Use of JAK1 inhibitors for the treatment of cutaneous lupus erythematosus and Lichen planus (LP)” (Incyte Corporation, priority 2019, dated 2024).

What was measured:
[1] = molecular target: human JAK1 (a.a. 837-1142) (Homo sapiens, UniProt P23458); experiment: In vitro JAK kinase assay (HTRF), JAK1; format: biochemical; conditions: 1 mM ATP
[2] = molecular target: human JAK2 (a.a. 828-1132) (Homo sapiens (Human), UniProt O60674); experiment: In vitro JAK kinase assay (HTRF), JAK2; format: biochemical; conditions: JAK2/JAK1 IC50 ratio, 1 mM ATP
MRL-lpr mice = experiment: Topical treatment of CLE-like lesions in lupus-prone MRL-lpr mice; format: in vivo, mouse
Source text: Topical treatment with JAK1-selective INCB054707 started with the MRL-lpr Mice at 11 weeks of age.

[3] = second independent experiment, dose-response
[4] = topical, 11 to 22 weeks, compared to placebo-treated mice

Chain of human JAK2 (a.a. 828-1132) (O60674 828-1132): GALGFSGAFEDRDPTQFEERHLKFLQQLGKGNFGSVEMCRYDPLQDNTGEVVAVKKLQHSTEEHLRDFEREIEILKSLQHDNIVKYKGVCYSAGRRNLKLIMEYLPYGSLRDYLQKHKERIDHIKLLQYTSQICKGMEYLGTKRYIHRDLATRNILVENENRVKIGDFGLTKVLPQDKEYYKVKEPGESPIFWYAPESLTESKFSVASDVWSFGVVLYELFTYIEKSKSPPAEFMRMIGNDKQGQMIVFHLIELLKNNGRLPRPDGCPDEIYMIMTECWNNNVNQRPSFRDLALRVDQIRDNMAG

| SMILES | IC50 [1] [nM] | JAK2/JAK1 [2] | also measured |
| --- | --- | --- | --- |
| C[C@H](O)CNCc1cc(OC2CCN([C@H]3C[C@](CC#N)(n4cc(-c5ncnc6[nH]ccc56)cn4)C3)CC2)nc(C(F)(F)F)c1 [Compound 25, {trans-3-(4-{[4-({[(2S)-2-hydroxypropyl]amino}methyl)-6-(trifluoromethyl)pyridin-2-yl]oxy}piperidin-1-yl)-1-[4-(7H-pyrrolo[2,3-d]pyrimidin-4-yl)-1H-pyrazol-1-yl]cyclobutyl}acetonitrile] | < 10 | >10 | – |
| C[C@@H](O)CNCc1cc(OC2CCN([C@H]3C[C@](CC#N)(n4cc(-c5ncnc6[nH]ccc56)cn4)C3)CC2)nc(C(F)(F)F)c1 [Compound 24, {trans-3-(4-{[4-({[(2R)-2-hydroxypropyl]amino}methyl)-6-(trifluoromethyl)pyridin-2-yl]oxy}piperidin-1-yl)-1-[4-(7H-pyrrolo[2,3-d]pyrimidin-4-yl)-1H-pyrazol-1-yl]cyclobutyl}acetonitrile] | < 10 | >10 | – |
| C[C@@H](O)c1nc2cnc3ccsc3c2n1[C@H]1CC[C@H](CC#N)OC1 [Compound 5, ((2R,5S)-5-{2-[(1R)-1-hydroxyethyl]-1H-imidazo[4,5-d]thieno[3,2-b]pyridin-1-yl}tetrahydro-2H-pyran-2-yl)acetonitrile] | < 100 | >10 | – |
| C[C@@H](CO)NCc1cc(OC2CCN([C@H]3C[C@](CC#N)(n4cc(-c5ncnc6[nH]ccc56)cn4)C3)CC2)nc(C(F)(F)F)c1 [Compound 23, {trans-3-(4-{[4-({[(1S)-2-hydroxy-1-methylethyl]amino}methyl)-6-(trifluoromethyl)pyridin-2-yl]oxy}piperidin-1-yl)-1-[4-(7H-pyrrolo[2,3-d]pyrimidin-4-yl)-1H-pyrazol-1-yl]cyclobutyl}acetonitrile] | < 10 | >10 | – |
| N#CC[C@]1(n2cc(-c3ncnc4[nH]ccc34)cn2)C[C@H](N2CCC(Oc3cc(CCO)cc(C(F)(F)F)n3)CC2)C1 [Compound 26, {trans-3-(4-{[4-(2-hydroxyethyl)-6-(trifluoromethyl)pyridin-2-yl]oxy}piperidin-1-yl)-1-[4-(7H-pyrrolo[2,3-d]pyrimidin-4-yl)-1H-pyrazol-1-yl]cyclobutyl}acetonitrile] | < 10 | >10 | – |
| N#CC[C@]1(n2cc(-c3ncnc4[nH]ccc34)cn2)C[C@H](N2CCC(Oc3cc(CN4CC(O)C4)cc(C(F)(F)F)n3)CC2)C1 [Compound 11, {trans-3-(4-{[4-[(3-hydroxyazetidin-1-yl)methyl]-6-(trifluoromethyl)pyridin-2-yl]oxy}piperidin-1-yl)-1-[4-(7H-pyrrolo[2,3-d]pyrimidin-4-yl)-1H-pyrazol-1-yl]cyclobutyl}acetonitrile] | < 10 | >10 | – |
| N#CC[C@]1(n2cc(-c3ncnc4[nH]ccc34)cn2)C[C@H](N2CCC(Oc3cc(CN4CCC[C@@H]4CO)cc(C(F)(F)F)n3)CC2)C1 [Compound 13, {trans-3-(4-{[4-{[(2R)-2-(hydroxymethyl)pyrrolidin-1-yl]methyl}-6-(trifluoromethyl)pyridin-2-yl]oxy}piperidin-1-yl)-1-[4-(7H-pyrrolo[2,3-d]pyrimidin-4-yl)-1H-pyrazol-1-yl]cyclobutyl}acetonitrile] | < 10 | >10 | – |
| Cc1n[nH]c(C)c1-c1cnn(C2(CC#N)CN(c3cc(F)c(C(=O)N[C@@H](C)C(F)(F)F)cc3F)C2)c1 [INCB054707] | – | – | cumulative skin lesion disease burden (MRL-lpr mice; [3]): significant dose-dependent effects; daily cutaneous skin lesion score (MRL-lpr mice; [3]): significant dose-dependent effects; incidence of mice with skin lesions (MRL-lpr mice; [3]): significant dose-dependent effects; cumulative skin lesion disease burden (area under the curve) (MRL-lpr mice; topical, 11 to 22 weeks): significantly reduced; cutaneous skin lesion score (MRL-lpr mice; [4]): significantly reduced; incidence of mice with skin lesions (MRL-lpr mice; [4]): significantly reduced; inflammatory markers, RNAseq of skin biopsy (MRL-lpr mice; topical, dose-dependent): downregulation of multiple inflammatory markers; lesional skin regarding erythema, induration, scaling and size (MRL-lpr mice; topical, from 11 weeks to 22 weeks of age): continuously improved |
| N#CC[C@]1(n2cc(-c3ncnc4[nH]ccc34)cn2)C[C@H](N2CCN(C(=O)c3ccnc(C(F)(F)F)n3)CC2)C1 [Compound 10, [trans-1-[4-(7H-pyrrolo[2,3-d]pyrimidin-4-yl)-1H-pyrazol-1-yl]-3-(4-{[2-(trifluoromethyl)pyrimidin-4-yl]carbonyl}piperazin-1-yl)cyclobutyl]acetonitrile] | < 10 | >10 | – |
| N#CCC(CN1CCN(C(=O)c2ccc(C#N)cc2F)CC1)n1ccc(-c2ncnc3[nH]ccc23)c1 (centres unmarked) [Compound 9, 4-[(4-{3-cyano-2-[3-(7H-pyrrolo[2,3-d]pyrimidin-4-yl)-1H-pyrrol-1-yl]propyl}piperazin-1-yl)carbonyl]-3-fluorobenzonitrile] | < 10 | >10 | – |
| C[C@H](NC(=O)c1cc(F)c(N2CC(CC#N)(n3cc(-c4ncnc5[nH]ccc45)cn3)C2)cc1F)C(F)(F)F [Compound 16, 4-{3-(cyanomethyl)-3-[4-(7H-pyrrolo[2,3-d]pyrimidin-4-yl)-1H-pyrazol-1-yl]azetidin-1-yl}-2,5-difluoro-N-[(1S)-2,2,2-trifluoro-1-methylethyl]benzamide] | < 10 | >10 | – |

Second part, led by results:

| IC50 [1] [nM] | JAK2/JAK1 [2] | SMILES | also measured |
| --- | --- | --- | --- |
| < 10 | >10 | N#CC[C@]1(n2cc(-c3ncnc4[nH]ccc34)cn2)C[C@H](N2CCC(Oc3cc(CN4CCC[C@H]4CO)cc(C(F)(F)F)n3)CC2)C1 [Compound 12, {trans-3-(4-{[4-{[(2S)-2-(hydroxymethyl)pyrrolidin-1-yl]methyl}-6-(trifluoromethyl)pyridin-2-yl]oxy}piperidin-1-yl)-1-[4-(7H-pyrrolo[2,3-d]pyrimidin-4-yl)-1H-pyrazol-1-yl]cyclobutyl}acetonitrile] | – |
| < 10 | >10 | N#CCC1(n2cc(-c3ncnc4[nH]ccc34)cn2)CN(C2CCN(C(=O)Nc3ccc(F)cc3C(F)(F)F)CC2)C1 [Compound 2, 4-{3-(Cyanomethyl)-3-[4-(7H-pyrrolo[2,3-d]pyrimidin-4-yl)-1H-pyrazol-1-yl]azetidin-1-yl}-N-[4-fluoro-2-(trifluoromethyl)phenyl]piperidine-1-carboxamide] | – |
| < 10 | >10 | N#CCC1(n2cc(-c3ncnc4[nH]ccc34)cn2)CN([C@H]2CC[C@@H](Oc3cc(CCO)nc(C(F)(F)F)n3)CC2)C1 [Compound 18, {1-(cis-4-{[6-(2-hydroxyethyl)-2-(trifluoromethyl)pyrimidin-4-yl]oxy}cyclohexyl)-3-[4-(7H-pyrrolo[2,3-d]pyrimidin-4-yl)-1H-pyrazol-1-yl]azetidin-3-yl}acetonitrile] | – |
| < 10 | >10 | N#CCC1(n2cc(-c3ncnc4[nH]ccc34)cn2)CN(C2CCN(C(=O)c3ccnc(C(F)(F)F)n3)CC2)C1 [Compound 3, [3-[4-(7H-pyrrolo[2,3-d]pyrimidin-4-yl)-1H-pyrazol-1-yl]-1-(1-{[2-(trifluoromethyl)pyrimidin-4-yl]carbonyl}piperidin-4-yl)azetidin-3-yl]acetonitrile] | – |
| < 10 | >10 | N#CCC(C1CCN(c2nc3cccnc3o2)C1)n1cc(-c2ncnc3[nH]ccc23)cn1 (centres unmarked) [Compound 7, 3-(1-[1,3]oxazolo[5,4-b]pyridin-2-ylpyrrolidin-3-yl)-3-[4-(7H-pyrrolo[2,3-d]pyrimidin-4-yl)-1H-pyrazol-1-yl]propanenitrile] | – |
| < 10 | >10 | N#CCC(C1CCN(c2cccc(Cl)n2)C1)n1cc(-c2ncnc3[nH]ccc23)cn1 (single isomer, unassigned) [Compound 6, 3-[1-(6-chloropyridin-2-yl)pyrrolidin-3-yl]-3-[4-(7H-pyrrolo[2,3-d]pyrimidin-4-yl)-1H-pyrazol-1-yl]propanenitrile] | – |
| < 10 | >10 | N#CCC1(n2cc(-c3ncnc4[nH]ccc34)cn2)CN([C@H]2CC[C@@H](Oc3cc(CN4CC[C@H](O)C4)cc(C(F)(F)F)n3)CC2)C1 [Compound 22, {1-(cis-4-{[4-{[(3S)-3-hydroxypyrrolidin-1-yl]methyl}-6-(trifluoromethyl)pyridin-2-yl]oxy}cyclohexyl)-3-[4-(7H-pyrrolo[2,3-d]pyrimidin-4-yl)-1H-pyrazol-1-yl]azetidin-3-yl}acetonitrile] | – |
| < 10 | >10 | CC(C)(O)c1cc(O[C@H]2CC[C@@H](N3CC(CC#N)(n4cc(-c5ncnc6[nH]ccc56)cn4)C3)CC2)nc(C(F)(F)F)c1 [Compound 20, {1-(cis-4-{[4-(1-hydroxy-1-methylethyl)-6-(trifluoromethyl)pyridin-2-yl]oxy}cyclohexyl)-3-[4-(7H-pyrrolo[2,3-d]pyrimidin-4-yl)-1H-pyrazol-1-yl]azetidin-3-yl}acetonitrile] | – |
| < 10 | >10 | N#CCC(CN1CCN(C(=O)c2ccc(C#N)cc2F)CC1)n1cc(-c2ncnc3[nH]ccc23)cn1 (centres unmarked) [Compound 8, 4-[(4-{3-cyano-2-[4-(7H-pyrrolo[2,3-d]pyrimidin-4-yl)-1H-pyrazol-1-yl]propyl}piperazin-1-yl)carbonyl]-3-fluorobenzonitrile] | – |
| < 10 | >10 | N#CCC1(n2cc(-c3ncnc4[nH]ccc34)cn2)CN([C@H]2CC[C@@H](Oc3cc(CN4CC[C@@H](O)C4)cc(C(F)(F)F)n3)CC2)C1 [Compound 21, {1-(cis-4-{[4-{[(3R)-3-hydroxypyrrolidin-1-yl]methyl}-6-(trifluoromethyl)pyridin-2-yl]oxy}cyclohexyl)-3-[4-(7H-pyrrolo[2,3-d]pyrimidin-4-yl)-1H-pyrazol-1-yl]azetidin-3-yl}acetonitrile] | – |
| < 10 | >10 | CCNCc1cc(O[C@H]2CC[C@@H](N3CC(CC#N)(n4cc(-c5ncnc6[nH]ccc56)cn4)C3)CC2)nc(C(F)(F)F)c1 [Compound 19, {1-(cis-4-{[4-[(ethylamino)methyl]-6-(trifluoromethyl)pyridin-2-yl]oxy}cyclohexyl)-3-[4-(7H-pyrrolo[2,3-d]pyrimidin-4-yl)-1H-pyrazol-1-yl]azetidin-3-yl}acetonitrile] | – |
